Assay results as given in patent publication US20260234125A1, “CYCLIC AMINE DERIVATIVE, AND COMPOSITION AND USE THEREOF” (SHANGHAI JINGXIN BIOMEDICAL CO., LTD., priority 2023, published 2026).

Tests used:
hERG potassium channel = molecular target: T1, hERG potassium channel (Homo sapiens, UniProt Q12809); assay: hERG whole-cell patch clamp experiment; assay type: cell-based; details: HEK-293 cells that express hERG, HEK-293-hERG cell, read-out: inhibition rate
T1 construct: expressed in transfected cells; host or cells: HEK-293-hERG cells
Description: • 1. Experimental purpose: The purpose of this test is to test the inhibition rate of the compounds on the hERG potassium channel • 2. Experimental methods: The hERG current was recorded using the whole-cell patch clamp technique. A suspension of HEK-293-hERG cell was added to a small culture dish and placed on an inverted microscope stage. After the cells adhered to the dish, extracellular fluid was perfused at a flow rate of 1-2 mL/minute. The glass microelectrode was pulled in two steps by a microelectrode puller, after the electrode was filled with internal fluid, its water resistance was 2-5 MΩ. After establishing the whole-cell recording mode, the holding potential was maintained at −80 mV. A depolarizing voltage to +60 mV was applied for 850 ms, and then followed by repolarization to −50 mV for 1275 ms to elicit the hERG tail current. This set of pulse programs was repeated every 15 seconds throughout the experiment. After the current stabilized, the test compound was administered via continuous extracellular perfusion from low concentration to high concentration. Starting from a low concentration, perfusion was continued until the drug effect was stable, and then the next concentration was perfused.

[1] = test system: Salmonella typhimurium TA102; assay: Salmonella typhimurium reverse mutation test, TA102; assay type: cell-based; design: key: + indicates a positive mutagenic result; − indicates a negative mutagenic result
Description: (§1) The revived strains or a single colony from the master plate were inoculated into the broth, and cultured in a thermostat gas bath vibrator at 100 to 120 rpm and 37±1° C. for 10 to 16 hours, marked and stored for later use. The bottom agar medium (containing an appropriate amount of agar, Vogel-Bonner buffer, 20% glucose solution and 20% magnesium sulfate solution) was poured into a six-well plate, approximately […] into each well, and allowed to cool and solidify naturally, marked each well and stored for later use.
(§2) Three wells were set up in each group for parallel experiments. The top agar medium was sterilized under high pressure and kept warm at about 65° C. In each test tube, 0.1 mL of negative control (DMSO) or positive control or test sample, 0.1 mL of bacterial solution suspension, 0.5 mL of phosphate buffer (0.2M PBS) (−S9) or 0.5 mL of S9 mixed solution (+S9) and 2.5 mL top culture medium were added, after vortex mixing, and then quickly and evenly spread on the culture dish which was already spreaded with the bottom agar medium. After natural cooling and solidification, the culture dish was inverted and placed in a 37° C. incubator for 48 to 72 hours. After culturing for 48 to 72 hours, the culture dish was taken out, and the number of revertant colonies in each well was counted, the growth background was observed under a microscope to determine whether there was antibacterial or bactericidal activity, and the experimental results were recorded.

[2] = test system: Salmonella typhimurium TA1537; assay: Salmonella typhimurium reverse mutation test, TA1537; assay type: cell-based; design: key: + indicates a positive mutagenic result; − indicates a negative mutagenic result
Description: as §1, §2

[3] = Exposure determination in beagle dogs; assay type: in vivo; details: dog, single oral gavage 4.5 mg/kg, plasma
Description: • 1. Experimental purpose: The purpose of this test is to test the exposure of the compound in beagle dogs • 2. Experimental methods: Beagle dogs were housed with a standard light cycle (12 hours light/12 hours dark), at a room temperature of 18-26° C. and a relative humidity of 40-70%, with free access to water and normal diet. Five days prior to the study, the beagle dogs were randomly assigned to groups based on their body weight for the study, including an oral administration group (n=3/group). The administration volume was calculated according to the weight of the animals on the day of administration, and the administration volume was 5 mL/kg, the single oral gavage administration was performed at a dose of 4.5 mg/kg, and the solvent was 1% HEC and 0.25% Tween 80 in Water. Blood was collected from the forelimb vein or other suitable veins at 0.5 h, 1 h, 2 h, 4 h, 6 h, 8 h, 12 h, 24 h, 48 h, 72 h and 96 h after administration. About 1 mL of each sample was collected, K2-EDTA anticoagulated, placed on ice after collection, and within 1 hour, centrifuged to separate plasma (centrifugation conditions: 2200 g, 10 minutes, 2-8° C.) for blood drug concentration detection.

[4] = test system: Salmonella typhimurium TA100; assay: Salmonella typhimurium reverse mutation test, TA100; assay type: cell-based; design: key: + indicates a positive mutagenic result; − indicates a negative mutagenic result
Description: as §1, §2

[5] = test system: Salmonella typhimurium TA1535; assay: Salmonella typhimurium reverse mutation test, TA1535; assay type: cell-based; design: key: + indicates a positive mutagenic result; − indicates a negative mutagenic result
Description: as §1, §2

[6] = test system: Salmonella typhimurium TA98; assay: Salmonella typhimurium reverse mutation test, TA98; assay type: cell-based; design: key: + indicates a positive mutagenic result; − indicates a negative mutagenic result
Description: as §1, §2

T1 sequence (Q12809 whole entry): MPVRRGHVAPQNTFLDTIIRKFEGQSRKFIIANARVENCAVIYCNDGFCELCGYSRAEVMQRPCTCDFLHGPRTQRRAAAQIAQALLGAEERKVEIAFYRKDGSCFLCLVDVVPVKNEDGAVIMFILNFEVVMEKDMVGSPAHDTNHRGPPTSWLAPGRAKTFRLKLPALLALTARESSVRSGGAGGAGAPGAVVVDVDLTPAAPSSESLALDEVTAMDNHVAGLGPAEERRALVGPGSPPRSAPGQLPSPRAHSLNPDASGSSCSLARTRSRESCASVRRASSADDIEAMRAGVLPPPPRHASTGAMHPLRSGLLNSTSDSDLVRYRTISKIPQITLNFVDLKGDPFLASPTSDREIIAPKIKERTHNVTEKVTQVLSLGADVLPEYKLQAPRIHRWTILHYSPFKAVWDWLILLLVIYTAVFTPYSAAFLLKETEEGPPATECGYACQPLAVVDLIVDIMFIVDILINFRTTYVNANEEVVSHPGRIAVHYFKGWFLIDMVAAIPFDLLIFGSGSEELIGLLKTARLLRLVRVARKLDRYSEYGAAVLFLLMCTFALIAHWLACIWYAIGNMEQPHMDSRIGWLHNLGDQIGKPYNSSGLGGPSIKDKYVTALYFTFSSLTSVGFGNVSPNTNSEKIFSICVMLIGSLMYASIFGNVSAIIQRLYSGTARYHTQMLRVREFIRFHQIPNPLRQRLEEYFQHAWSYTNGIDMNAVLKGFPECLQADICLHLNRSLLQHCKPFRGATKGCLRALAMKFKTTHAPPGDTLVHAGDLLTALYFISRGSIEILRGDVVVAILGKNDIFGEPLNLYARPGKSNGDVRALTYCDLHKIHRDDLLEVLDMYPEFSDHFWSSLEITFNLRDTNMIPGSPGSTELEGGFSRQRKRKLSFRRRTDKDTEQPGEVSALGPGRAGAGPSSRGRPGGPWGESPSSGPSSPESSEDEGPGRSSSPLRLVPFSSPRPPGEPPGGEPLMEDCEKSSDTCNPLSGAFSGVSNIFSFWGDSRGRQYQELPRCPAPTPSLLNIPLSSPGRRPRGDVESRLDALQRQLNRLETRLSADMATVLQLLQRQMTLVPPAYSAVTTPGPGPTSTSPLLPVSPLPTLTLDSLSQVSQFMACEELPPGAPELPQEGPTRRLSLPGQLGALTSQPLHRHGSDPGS

O=C(O)[C@@H](Cc1cccc(CN(Cc2cccc(C[C@H](C(=O)O)[C@H]3CCNC3)c2)Cc2cccc(C[C@H](C(=O)O)[C@H]3CCNC3)c2)c1)[C@H]1CCNC1 [Comparative Example 1, reference compound]
inhibition at 0.3 µM (hERG potassium channel): 7.37% | inhibition at 1 µM (hERG potassium channel): 24.6% | inhibition at 3 µM (hERG potassium channel): 29.2% | mutagenicity ([1]; TA102, +S9, 62 μg/dish): − | mutagenicity ([1]; TA102, +S9, 185 μg/dish): − | mutagenicity ([1]; TA102, +S9, 556 μg/dish): − | mutagenicity ([1]; TA102, +S9, 1667 μg/dish): − | mutagenicity ([1]; TA102, +S9, 5000 μg/dish): − | mutagenicity ([1]; TA102, −S9, 62 μg/dish): − | mutagenicity ([1]; TA102, −S9, 185 μg/dish): − | mutagenicity ([1]; TA102, −S9, 556 μg/dish): − | mutagenicity ([1]; TA102, −S9, 1667 μg/dish): − | mutagenicity ([1]; TA102, −S9, 5000 μg/dish): − | mutagenicity ([2]; TA1537, +S9, 62 μg/dish): − | mutagenicity ([2]; TA1537, +S9, 185 μg/dish): − | mutagenicity ([2]; TA1537, +S9, 556 μg/dish): − | mutagenicity ([2]; TA1537, +S9, 1667 μg/dish): − | mutagenicity ([2]; TA1537, +S9, 5000 μg/dish): − | mutagenicity ([2]; TA1537, −S9, 62 μg/dish): − | mutagenicity ([2]; TA1537, −S9, 185 μg/dish): − | mutagenicity ([2]; TA1537, −S9, 556 μg/dish): − | mutagenicity ([2]; TA1537, −S9, 1667 μg/dish): − | mutagenicity ([2]; TA1537, −S9, 5000 μg/dish): − | AUC(0-inf) [3]: 37.4 µg·h/mL | mutagenicity ([4]; TA100, +S9, 62 μg/dish): − | mutagenicity ([4]; TA100, +S9, 185 μg/dish): − | mutagenicity ([4]; TA100, +S9, 556 μg/dish): − | mutagenicity ([4]; TA100, +S9, 1667 μg/dish): − | mutagenicity ([4]; TA100, +S9, 5000 μg/dish): − | mutagenicity ([4]; TA100, −S9, 62 μg/dish): − | mutagenicity ([4]; TA100, −S9, 185 μg/dish): − | mutagenicity ([4]; TA100, −S9, 556 μg/dish): − | mutagenicity ([4]; TA100, −S9, 1667 μg/dish): − | mutagenicity ([4]; TA100, −S9, 5000 μg/dish): − | mutagenicity ([5]; TA1535, +S9, 62 μg/dish): − | mutagenicity ([5]; TA1535, +S9, 185 μg/dish): − | mutagenicity ([5]; TA1535, +S9, 556 μg/dish): − | mutagenicity ([5]; TA1535, +S9, 1667 μg/dish): − | mutagenicity ([5]; TA1535, +S9, 5000 μg/dish): − | mutagenicity ([5]; TA1535, −S9, 62 μg/dish): − | mutagenicity ([5]; TA1535, −S9, 185 μg/dish): − | mutagenicity ([5]; TA1535, −S9, 556 μg/dish): − | mutagenicity ([5]; TA1535, −S9, 1667 μg/dish): − | mutagenicity ([5]; TA1535, −S9, 5000 μg/dish): − | mutagenicity ([6]; TA98, +S9, 62 μg/dish): − | mutagenicity ([6]; TA98, +S9, 185 μg/dish): − | mutagenicity ([6]; TA98, +S9, 556 μg/dish): + | mutagenicity ([6]; TA98, +S9, 1667 μg/dish): + | mutagenicity ([6]; TA98, +S9, 5000 μg/dish): + | mutagenicity ([6]; TA98, −S9, 62 μg/dish): − | mutagenicity ([6]; TA98, −S9, 185 μg/dish): + | mutagenicity ([6]; TA98, −S9, 556 μg/dish): + | mutagenicity ([6]; TA98, −S9, 1667 μg/dish): + | mutagenicity ([6]; TA98, −S9, 5000 μg/dish): +

O=C(O)[C@@H](Cc1cccc(CN(Cc2cccc(C[C@H](C(=O)O)[C@H]3CCNC3)c2)C(=O)c2cccc(C[C@H](C(=O)O)[C@H]3CCNC3)c2)c1)[C@H]1CCNC1 [Example 5]
inhibition at 0.3 µM (hERG potassium channel): -0.06% | inhibition at 1 µM (hERG potassium channel): 3.47% | inhibition at 3 µM (hERG potassium channel): 3.67% | mutagenicity ([1]; TA102, +S9, 62 μg/dish): − | mutagenicity ([1]; TA102, +S9, 185 μg/dish): − | mutagenicity ([1]; TA102, +S9, 556 μg/dish): − | mutagenicity ([1]; TA102, +S9, 1667 μg/dish): − | mutagenicity ([1]; TA102, +S9, 5000 μg/dish): − | mutagenicity ([1]; TA102, −S9, 62 μg/dish): − | mutagenicity ([1]; TA102, −S9, 185 μg/dish): − | mutagenicity ([1]; TA102, −S9, 556 μg/dish): − | mutagenicity ([1]; TA102, −S9, 1667 μg/dish): − | mutagenicity ([1]; TA102, −S9, 5000 μg/dish): − | mutagenicity ([2]; TA1537, +S9, 62 μg/dish): − | mutagenicity ([2]; TA1537, +S9, 185 μg/dish): − | mutagenicity ([2]; TA1537, +S9, 556 μg/dish): − | mutagenicity ([2]; TA1537, +S9, 1667 μg/dish): − | mutagenicity ([2]; TA1537, +S9, 5000 μg/dish): − | mutagenicity ([2]; TA1537, −S9, 62 μg/dish): − | mutagenicity ([2]; TA1537, −S9, 185 μg/dish): − | mutagenicity ([2]; TA1537, −S9, 556 μg/dish): − | mutagenicity ([2]; TA1537, −S9, 1667 μg/dish): − | mutagenicity ([2]; TA1537, −S9, 5000 μg/dish): − | AUC(0-inf) [3]: 119 µg·h/mL | mutagenicity ([4]; TA100, +S9, 62 μg/dish): − | mutagenicity ([4]; TA100, +S9, 185 μg/dish): − | mutagenicity ([4]; TA100, +S9, 556 μg/dish): − | mutagenicity ([4]; TA100, +S9, 1667 μg/dish): − | mutagenicity ([4]; TA100, +S9, 5000 μg/dish): − | mutagenicity ([4]; TA100, −S9, 62 μg/dish): − | mutagenicity ([4]; TA100, −S9, 185 μg/dish): − | mutagenicity ([4]; TA100, −S9, 556 μg/dish): − | mutagenicity ([4]; TA100, −S9, 1667 μg/dish): − | mutagenicity ([4]; TA100, −S9, 5000 μg/dish): − | mutagenicity ([5]; TA1535, +S9, 62 μg/dish): − | mutagenicity ([5]; TA1535, +S9, 185 μg/dish): − | mutagenicity ([5]; TA1535, +S9, 556 μg/dish): − | mutagenicity ([5]; TA1535, +S9, 1667 μg/dish): − | mutagenicity ([5]; TA1535, +S9, 5000 μg/dish): − | mutagenicity ([5]; TA1535, −S9, 62 μg/dish): − | mutagenicity ([5]; TA1535, −S9, 185 μg/dish): − | mutagenicity ([5]; TA1535, −S9, 556 μg/dish): − | mutagenicity ([5]; TA1535, −S9, 1667 μg/dish): − | mutagenicity ([5]; TA1535, −S9, 5000 μg/dish): − | mutagenicity ([6]; TA98, +S9, 62 μg/dish): − | mutagenicity ([6]; TA98, +S9, 185 μg/dish): − | mutagenicity ([6]; TA98, +S9, 556 μg/dish): − | mutagenicity ([6]; TA98, +S9, 1667 μg/dish): − | mutagenicity ([6]; TA98, +S9, 5000 μg/dish): − | mutagenicity ([6]; TA98, −S9, 62 μg/dish): − | mutagenicity ([6]; TA98, −S9, 185 μg/dish): − | mutagenicity ([6]; TA98, −S9, 556 μg/dish): − | mutagenicity ([6]; TA98, −S9, 1667 μg/dish): − | mutagenicity ([6]; TA98, −S9, 5000 μg/dish): −
